Measured values from patent US10487093B2, “Heterocyclic compounds, in particular 2-oxo-4,4,5,5,6,6,7,7-octahydrobenzoxazole derivatives, and their use as antibacterial compounds” (priority 2016, dated 2019).
Values after ≈ are worked out from the molar mass of the structure shown. Like-named read-outs stand apart in the source and are kept apart here.

What was measured:
Assay type in all cases: cell-based
[1] = tested on: Bacteroides fragilis ATCC 25285; assay: MIC against anaerobes, agar dilution (CLSI), reference strain; settings: ATCC25285, agar dilution, Brucella blood agar, 35° C., 48 h, anaerobic conditions, read-out: MIC, B. fragilis ATCC 25285
[2] = tested on: strains of Peptostreptococcus anaerobius; assay: MIC against anaerobes, agar dilution (CLSI), clinical isolates
[3] = tested on: strains of Propionibacterium acnes; assay: as above; settings: Cutibacterium acnes
[4] = tested on: Clostridium difficile ATCC 700057; assay: MIC against anaerobes, agar dilution (CLSI), reference strain; settings: Clostridioides difficile, ATCC700057, 48 h, read-out: MIC, C. difficile ATCC 700057
[5] = tested on: strains of Prevotella bivia; assay: MIC against anaerobes, agar dilution (CLSI), clinical isolates
[6] = tested on: strains of Peptoniphilus harei; assay: as above; settings: Peptoniphilus harei, read-out: MIC
[7] = tested on: Bacteroides thetaiotaomicron ATCC 29741; assay: microbe, parasite or virus in culture; settings: ATCC29741, 48 h, read-out: MIC, B. thetaiotaomicron ATCC
[8] = tested on: strains of Clostridium perfringens; assay: microbe, parasite or virus in culture
[9] = tested on: strains of Bacteroides thetaiotaomicron; assay: microbe, parasite or virus in culture
[10] = tested on: strains of Prevotella melaninogenica; assay: MIC against anaerobes, agar dilution (CLSI), clinical isolates
[11] = tested on: strains of Parvimonas micra; assay: as above
[12] = tested on: strains of Finegoldia magna; assay: as above; settings: Finegoldia magna, read-out: MIC
[13] = tested on: strains of Bacteroides fragilis; assay: as above

## Cc1ncc([N+](=O)[O-])n1CCO [MTZ, metronidazole, reference compound]
[1]
  MIC: < 1 µg/mL
[2]; Peptostreptococcus anaerobius strain 1
  MIC: < 1 µg/mL
[2]; Peptostreptococcus anaerobius strain 2
  MIC: < 1 µg/mL
[2]; Peptostreptococcus anaerobius strain 3
  MIC: < 1 µg/mL
[2]; Peptostreptococcus anaerobius strain 4
  MIC: < 1 µg/mL
[2]; Peptostreptococcus anaerobius strain 5
  MIC: < 1 µg/mL
[2]; Peptostreptococcus anaerobius strain 6
  MIC: < 1 µg/mL
[2]; Peptostreptococcus anaerobius strain 7
  MIC: < 1 µg/mL
[2]; Peptostreptococcus anaerobius strain 8
  MIC: < 1 µg/mL
[2]; Peptostreptococcus anaerobius strain 9
  MIC: < 1 µg/mL
[2]; Peptostreptococcus anaerobius strain 10
  MIC: < 1 µg/mL
[3]; Propionibacterium acnes strain 1
  MIC: 16 to 64 µg/mL (≈ 93.5 to 374 µM)
[3]; Propionibacterium acnes strain 2
  MIC: 16 to 64 µg/mL (≈ 93.5 to 374 µM)
[3]; Propionibacterium acnes strain 3
  MIC: 16 to 64 µg/mL (≈ 93.5 to 374 µM)
[3]; Propionibacterium acnes strain 4
  MIC: 16 to 64 µg/mL (≈ 93.5 to 374 µM)
[3]; Propionibacterium acnes strain 5
  MIC: 16 to 64 µg/mL (≈ 93.5 to 374 µM)
[3]; Propionibacterium acnes strain 6
  MIC: 16 to 64 µg/mL (≈ 93.5 to 374 µM)
[3]; Propionibacterium acnes strain 7
  MIC: 16 to 64 µg/mL (≈ 93.5 to 374 µM)
[3]; Propionibacterium acnes strain 8
  MIC: 16 to 64 µg/mL (≈ 93.5 to 374 µM)
[3]; Propionibacterium acnes strain 9
  MIC: 16 to 64 µg/mL (≈ 93.5 to 374 µM)
[3]; Propionibacterium acnes strain 10
  MIC: 16 to 64 µg/mL (≈ 93.5 to 374 µM)
[3]; Propionibacterium acnes strain 11
  MIC: 16 to 64 µg/mL (≈ 93.5 to 374 µM)
[3]; Propionibacterium acnes strain 12
  MIC: 16 to 64 µg/mL (≈ 93.5 to 374 µM)
[4]
  MIC: < 1 µg/mL
[5]; Prevotella bivia strain 1
  MIC: 1 to 4 µg/mL (≈ 5.84 to 23.4 µM)
[5]; Prevotella bivia strain 2
  MIC: 1 to 4 µg/mL (≈ 5.84 to 23.4 µM)
[5]; Prevotella bivia strain 3
  MIC: 1 to 4 µg/mL (≈ 5.84 to 23.4 µM)
[5]; Prevotella bivia strain 4
  MIC: 1 to 4 µg/mL (≈ 5.84 to 23.4 µM)
[5]; Prevotella bivia strain 5
  MIC: 1 to 4 µg/mL (≈ 5.84 to 23.4 µM)
[5]; Prevotella bivia strain 6
  MIC: 1 to 4 µg/mL (≈ 5.84 to 23.4 µM)
[5]; Prevotella bivia strain 7
  MIC: 1 to 4 µg/mL (≈ 5.84 to 23.4 µM)
[5]; Prevotella bivia strain 8
  MIC: 1 to 4 µg/mL (≈ 5.84 to 23.4 µM)
[5]; Prevotella bivia strain 9
  MIC: 1 to 4 µg/mL (≈ 5.84 to 23.4 µM)
[5]; Prevotella bivia strain 10
  MIC: 1 to 4 µg/mL (≈ 5.84 to 23.4 µM)
[6]; Peptoniphilus harei strain 1
  MIC: 1 to 4 µg/mL (≈ 5.84 to 23.4 µM)
[6]; Peptoniphilus harei strain 2
  MIC: < 1 µg/mL
[6]; Peptoniphilus harei strain 3
  MIC: < 1 µg/mL
[6]; Peptoniphilus harei strain 4
  MIC: 1 to 4 µg/mL (≈ 5.84 to 23.4 µM)
[6]; Peptoniphilus harei strain 5
  MIC: < 1 µg/mL
[6]; Peptoniphilus harei strain 6
  MIC: < 1 µg/mL
[6]; Peptoniphilus harei strain 7
  MIC: < 1 µg/mL
[6]; Peptoniphilus harei strain 8
  MIC: < 1 µg/mL
[6]; Peptoniphilus harei strain 9
  MIC: 1 to 4 µg/mL (≈ 5.84 to 23.4 µM)
[6]; Peptoniphilus harei strain 10
  MIC: < 1 µg/mL
[6]; Peptoniphilus harei strain 11
  MIC: < 1 µg/mL
[6]; Peptoniphilus harei strain 12
  MIC: 1 to 4 µg/mL (≈ 5.84 to 23.4 µM)
[7]
  MIC: 1 to 4 µg/mL (≈ 5.84 to 23.4 µM)
[8]; Clostridium perfringens strain 1
  MIC: 1 to 4 µg/mL (≈ 5.84 to 23.4 µM)
[8]; Clostridium perfringens strain 2
  MIC: < 1 µg/mL
[8]; Clostridium perfringens strain 3
  MIC: < 1 µg/mL
[8]; Clostridium perfringens strain 4
  MIC: < 1 µg/mL
[8]; Clostridium perfringens strain 5
  MIC: < 1 µg/mL
[8]; Clostridium perfringens strain 6
  MIC: 1 to 4 µg/mL (≈ 5.84 to 23.4 µM)
[8]; Clostridium perfringens strain 7
  MIC: < 1 µg/mL
[8]; Clostridium perfringens strain 8
  MIC: < 1 µg/mL
[8]; Clostridium perfringens strain 9
  MIC: < 1 µg/mL
[8]; Clostridium perfringens strain 10
  MIC: < 1 µg/mL
[8]; Clostridium perfringens strain 11
  MIC: 1 to 4 µg/mL (≈ 5.84 to 23.4 µM)
[9]; Bacteroides thetaiotaomicron strain 1
  MIC: < 1 µg/mL
[9]; Bacteroides thetaiotaomicron strain 2
  MIC: < 1 µg/mL
[9]; Bacteroides thetaiotaomicron strain 3
  MIC: 1 to 4 µg/mL (≈ 5.84 to 23.4 µM)
[9]; Bacteroides thetaiotaomicron strain 4
  MIC: 1 to 4 µg/mL (≈ 5.84 to 23.4 µM)
[9]; Bacteroides thetaiotaomicron strain 5
  MIC: 1 to 4 µg/mL (≈ 5.84 to 23.4 µM)
[9]; Bacteroides thetaiotaomicron strain 6
  MIC: 1 to 4 µg/mL (≈ 5.84 to 23.4 µM)
[9]; Bacteroides thetaiotaomicron strain 7
  MIC: < 1 µg/mL
[9]; Bacteroides thetaiotaomicron strain 8
  MIC: 1 to 4 µg/mL (≈ 5.84 to 23.4 µM)
[9]; Bacteroides thetaiotaomicron strain 9
  MIC: < 1 µg/mL
[9]; Bacteroides thetaiotaomicron strain 10
  MIC: 1 to 4 µg/mL (≈ 5.84 to 23.4 µM)
[9]; Bacteroides thetaiotaomicron strain 11
  MIC: 1 to 4 µg/mL (≈ 5.84 to 23.4 µM)
[10]; Prevotella melaninogenica strain 1
  MIC: < 1 µg/mL
[10]; Prevotella melaninogenica strain 2
  MIC: < 1 µg/mL
[10]; Prevotella melaninogenica strain 3
  MIC: < 1 µg/mL
[10]; Prevotella melaninogenica strain 4
  MIC: < 1 µg/mL
[10]; Prevotella melaninogenica strain 5
  MIC: < 1 µg/mL
[10]; Prevotella melaninogenica strain 6
  MIC: < 1 µg/mL
[10]; Prevotella melaninogenica strain 7
  MIC: < 1 µg/mL
[10]; Prevotella melaninogenica strain 8
  MIC: < 1 µg/mL
[10]; Prevotella melaninogenica strain 9
  MIC: < 1 µg/mL
[10]; Prevotella melaninogenica strain 10
  MIC: < 1 µg/mL
[10]; Prevotella melaninogenica strain 11
  MIC: < 1 µg/mL
[11]; Parvimonas micra strain 1
  MIC: 1 to 4 µg/mL (≈ 5.84 to 23.4 µM)
[11]; Parvimonas micra strain 2
  MIC: < 1 µg/mL
[11]; Parvimonas micra strain 3
  MIC: < 1 µg/mL
[11]; Parvimonas micra strain 4
  MIC: < 1 µg/mL
[11]; Parvimonas micra strain 5
  MIC: < 1 µg/mL
[11]; Parvimonas micra strain 6
  MIC: < 1 µg/mL
[11]; Parvimonas micra strain 7
  MIC: < 1 µg/mL
[11]; Parvimonas micra strain 8
  MIC: < 1 µg/mL
[11]; Parvimonas micra strain 9
  MIC: < 1 µg/mL
[11]; Parvimonas micra strain 10
  MIC: 1 to 4 µg/mL (≈ 5.84 to 23.4 µM)
[11]; Parvimonas micra strain 11
  MIC: < 1 µg/mL
[11]; Parvimonas micra strain 12
  MIC: < 1 µg/mL
[12]; Finegoldia magna strain 1
  MIC: < 1 µg/mL
[12]; Finegoldia magna strain 2
  MIC: < 1 µg/mL
[12]; Finegoldia magna strain 3
  MIC: 1 to 4 µg/mL (≈ 5.84 to 23.4 µM)
[12]; Finegoldia magna strain 4
  MIC: < 1 µg/mL
[12]; Finegoldia magna strain 5
  MIC: 1 to 4 µg/mL (≈ 5.84 to 23.4 µM)
[12]; Finegoldia magna strain 6
  MIC: 1 to 4 µg/mL (≈ 5.84 to 23.4 µM)
[12]; Finegoldia magna strain 7
  MIC: 1 to 4 µg/mL (≈ 5.84 to 23.4 µM)
[12]; Finegoldia magna strain 8
  MIC: 1 to 4 µg/mL (≈ 5.84 to 23.4 µM)
[12]; Finegoldia magna strain 9
  MIC: 1 to 4 µg/mL (≈ 5.84 to 23.4 µM)
[12]; Finegoldia magna strain 10
  MIC: 1 to 4 µg/mL (≈ 5.84 to 23.4 µM)
[12]; Finegoldia magna strain 11
  MIC: 1 to 4 µg/mL (≈ 5.84 to 23.4 µM)
[12]; Finegoldia magna strain 12
  MIC: < 1 µg/mL
[13]; Bacteroides fragilis strain 1
  MIC: < 1 µg/mL
[13]; Bacteroides fragilis strain 2
  MIC: < 1 µg/mL
[13]; Bacteroides fragilis strain 3
  MIC: < 1 µg/mL
[13]; Bacteroides fragilis strain 4
  MIC: < 1 µg/mL
[13]; Bacteroides fragilis strain 5
  MIC: < 1 µg/mL
[13]; Bacteroides fragilis strain 6
  MIC: < 1 µg/mL
[13]; Bacteroides fragilis strain 7
  MIC: < 1 µg/mL
[13]; Bacteroides fragilis strain 8
  MIC: < 1 µg/mL
[13]; Bacteroides fragilis strain 9
  MIC: < 1 µg/mL
[13]; Bacteroides fragilis strain 10
  MIC: < 1 µg/mL
[13]; Bacteroides fragilis strain 11
  MIC: < 1 µg/mL
[13]; Bacteroides fragilis strain 12
  MIC: < 1 µg/mL
